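Five concentrations, 48 hours, 96-well plates. The concentration for 50% growth inhibition is given as GI50.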 Active and inactive are the calls of the source. Cut-off read from the data, not from the text of the source: active = GI50 up to about 1.1 µM and inactive = higher.
Key:
Test in all cases: growth of human tumour cells (NCI), 48 h
[1] = test system: CAKI-1
[2] = test system: COLO 205
[3] = test system: SK-MEL-28
[4] = test system: SK-MEL-5
[5] = test system: SF-295
[6] = test system: OVCAR-3
[7] = test system: SR
[8] = test system: U-251
[9] = test system: SF-268
[10] = test system: ACHN
[11] = test system: XF498
[12] = test system: M19-MEL
[13] = test system: DMS-114
[14] = test system: SNB-78
[15] = test system: HCT-116
[16] = test system: RXF 393
[17] = test system: KM-20L2
[18] = test system: DMS-273
[19] = test system: HOP-18
[20] = test system: LXFL 529

Measured: GI50

O=C1CCC[C@H]2O[C@@H](COC(=O)c3ccccc3)C[C@H]2O1
inactive: [1] > 100 µM | [2] > 100 µM | [3] > 100 µM | [4] > 100 µM | [5] > 100 µM | [6] > 100 µM | [7] > 100 µM | [8] > 100 µM | [9] > 100 µM | [10] > 100 µM

CN(C)C(=O)N(CCCl)N=O
inactive: [11] > 81.1 µM | [1] > 100 µM | [2] > 100 µM | [3] > 100 µM | [4] > 100 µM | [5] > 100 µM | [12] > 100 µM | [13] > 100 µM | [14] > 100 µM | [6] > 100 µM | [8] > 100 µM | [15] > 100 µM | [9] > 100 µM | [16] > 100 µM | [17] > 100 µM | [18] > 100 µM | [19] > 100 µM

CC(C)OP(=O)(OC(C)C)C1=NN(c2ccc([N+](=O)[O-])cc2)C(P(=O)(OC(C)C)OC(C)C)=NN1c1ccc([N+](=O)[O-])cc1
inactive: [11] 7.98 µM | [1] 63.5 µM | [2] > 100 µM | [3] > 100 µM | [4] 24.5 µM | [12] > 100 µM | [13] 12.8 µM | [6] > 100 µM | [7] 9.08 µM | [8] 42.7 µM | [15] 7.6 µM | [9] > 100 µM | [16] > 100 µM | [17] > 100 µM | [10] > 100 µM | [18] 22.5 µM | [20] 22.9 µM | [19] > 100 µM

C1=C(c2ccccc2)SC(N2CCCCC2)S1 (stereo not drawn)
inactive: [11] > 100 µM | [2] > 100 µM | [5] > 100 µM | [12] 68.1 µM | [13] 60.1 µM | [14] > 100 µM | [6] > 100 µM | [7] 90.8 µM | [8] > 100 µM | [15] > 100 µM | [9] > 100 µM | [16] > 100 µM | [17] > 100 µM | [18] > 100 µM | [20] 77.3 µM

COc1ccc(/C(Cl)=C(\C=O)c2ccc(Cl)cc2)cc1
inactive: [1] 9.51 µM | [4] 11.2 µM | [5] 4.4 µM | [12] 9.77 µM | [13] 4.15 µM | [14] 6.85 µM | [6] 4.68 µM | [7] 2.69 µM | [8] 3.79 µM | [15] 4.02 µM | [9] 6.11 µM | [16] 10.7 µM | [17] 6.41 µM | [10] 3.27 µM | [18] 4.34 µM | [20] 9.23 µM | [19] 30.3 µM

O=C(NCCN(CCNC(=O)c1cccc(=O)n1O)CCNC(=O)c1cccc(=O)n1O)c1cccc(=O)n1O
inactive: [1] > 100 µM | [2] > 100 µM | [3] > 100 µM | [4] > 100 µM | [5] > 100 µM | [6] > 100 µM | [7] > 100 µM | [8] > 100 µM | [9] > 100 µM | [16] > 100 µM | [10] > 100 µM

— ChEMBL document CHEMBL1201862, “PubChem BioAssay data set” (2004)
